The results in this text go back to PubChem BioAssay (NCI).

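Cultured in 96-well plates, cells were exposed to test compound for 48 hours across five concentrations. GI50 is the concentration that inhibits growth by half. TGI marks complete inhibition of growth.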

Assay in all cases: NCI anticancer screen, dose series, 48 h
In assay [1] the test system is HOP-92 NSCLC.
Assay [2] has as its system SN12C renal.
Assay [3] relates to LOX IMVI melanoma.
The test system of assay [4] is OVCAR-4 ovarian.
Assay [5] concerns 786-0 renal.
Assay [6] deals with IGROV1 ovarian.
Assay [7] deals with TK-10 renal.
The subject of assay [8] is NCI-H522 lung.

Take `Cc1nc(-c2ccccc2)c(Cc2ccccc2O)c(=O)[nH]1`: the TGI in assay [1], in assay [2], in assay [3], in assay [4], in assay [5] and in assay [6] was above 100 µM throughout. In addition, the TGI in assay [7] and in assay [8] was above 100 µM in each case.

For the compound `C/C=C/C/C=C/CCC(=O)[C@H]1O[C@H]1C(N)=O`, the GI50 is 10.8 µM in assay [1]; 11.5 µM in assay [2]; 8.38 µM in assay [3]; 14.8 µM in assay [5]; 13.5 µM in assay [6]; 16.5 µM in assay [7]. Moreover, the TGI is 26.3 µM in assay [1]; 25.3 µM in assay [2]; 21.5 µM in assay [3]; 26.1 µM in assay [4]; 36.1 µM in assay [5]; 33.3 µM in assay [6]. Also, the TGI stood at 30.5 µM in assay [7] and 25.6 µM in assay [8].

Turning to `Cn1ccnc1C(=O)/C=C/c1ccc(C(=O)Nc2ccc(S(F)(F)(F)(F)F)cc2)cc1`, the GI50 was 3.03 µM in assay [1]; 2.77 µM in assay [2]; 1.01 µM in assay [3]; 0.704 µM in assay [4]; 3.86 µM in assay [5]; 3.08 µM in assay [6]. Moreover, the GI50 in assay [7] was 4 µM; in assay [8], 4.69 µM. In addition, the TGI was above 14.3 µM in assay [1]; above 14.3 µM in assay [2]; 3.25 µM in assay [3]; above 14.3 µM in assay [4]; above 14.3 µM in assay [5]; above 14.3 µM in assay [6]. The TGI in assay [7] and in assay [8] was above 14.3 µM each time.

On to `Clc1ccc(/C=C/c2cc(N3CCOCC3)c3cc(Cl)c(Cl)cc3n2)cc1`, for which the GI50 in assay [1] was above 100 µM; in assay [2] it was 1.54 µM; in assay [3] it was above 100 µM; in assay [4], above 100 µM; in assay [5], 1.37 µM; in assay [6], above 100 µM. Moreover, the GI50 was above 100 µM in assay [7] and 1.86 µM in assay [8]. The TGI in assay [1], in assay [2], in assay [3], in assay [4], in assay [5] and in assay [6] was above 100 µM throughout. In addition, the TGI in assay [7] and in assay [8] was above 100 µM in each case.

For the compound `Nc1ccccc1-c1ccc([N+](=O)[O-])cc1`, the GI50 in assay [1] is 17.9 µM; in assay [2], 11.2 µM; in assay [3] it was 37.4 µM; in assay [4], 40.8 µM; in assay [5], 9.16 µM; in assay [6], 19 µM. The GI50 in assay [7] is 25.9 µM; in assay [8], 11.2 µM. Moreover, the TGI in assay [1] is 97.6 µM; in assay [2], above 100 µM; in assay [3] it was above 100 µM; in assay [4], above 100 µM; in assay [5] it was above 100 µM; in assay [6], above 100 µM. Further, the TGI in assay [7] and in assay [8] was above 100 µM each time.

For `CN(Cc1ccc(Cl)cc1)c1ccc(CO)c(Cl)c1`, the GI50 in assay [1] is 3.16 µM; in assay [2], 8.55 µM; in assay [3], 4.48 µM; in assay [4] it was 2.27 µM; in assay [5] it was 3.82 µM; in assay [6], 0.365 µM. For the same compound, the GI50 in assay [7] was 0.268 µM; in assay [8], 13.4 µM. For the same compound, the TGI in assay [1] worked out at 16.1 µM; in assay [2], 22.6 µM; in assay [3], 16.7 µM; in assay [4] it was 14 µM; in assay [5], 17 µM; in assay [6] it was 2.24 µM. Moreover, the TGI in assay [7] turned out to be 1.68 µM; in assay [8], 31.2 µM.

As for `N#Cc1ncc(-c2ccc(C(F)(F)F)cc2)c(NCc2cc(C(F)(F)F)cc(C(F)(F)F)c2)n1`, the GI50 in assay [1] is 2.14 µM; in assay [2], 3.54 µM; in assay [3] it was 3.02 µM; in assay [4] it was 3.33 µM; in assay [5], 6.39 µM; in assay [6] it was 5.95 µM. Besides, the GI50 in assay [7] was 5.84 µM; in assay [8] it was 2.92 µM. Besides, the TGI is 5.74 µM in assay [1]; above 100 µM in assay [2]; 16.5 µM in assay [3]; above 100 µM in assay [4]; 96.3 µM in assay [5]; above 100 µM in assay [6]. Besides, the TGI in assay [7] stood at 56 µM; in assay [8] it was 9.86 µM.

On to `N/C(=C\C(=O)n1nc(-c2ccccc2)cc1N)c1ccccc1`, for which the GI50 in assay [1] was 4.59 µM; in assay [2], 7.96 µM; in assay [3], 6.54 µM; in assay [4], 12.5 µM; in assay [5], 7.72 µM; in assay [6], 6.38 µM. For the same compound, the GI50 in assay [7] is 7.72 µM; in assay [8] it was 5.24 µM. In addition, the TGI in assay [1] came out at 31.8 µM; in assay [2], 24.3 µM; in assay [3] it was 31.4 µM; in assay [4], 47.1 µM; in assay [5], 44.3 µM; in assay [6], 61.7 µM. In addition, the values for the TGI in assay [7] and in assay [8] were above 100 µM and 27.9 µM, respectively.

`COc1cc2c(cc1O)-c1c(cnn1-c1ccc([N+](=O)[O-])cc1)CCC2`: the TGI was above 100 µM in assay [1]; 14.7 µM in assay [2]; 26.5 µM in assay [3]; above 100 µM in assay [4]; above 100 µM in assay [5]; 18.7 µM in assay [6]. The TGI in assay [7] is 32.6 µM; in assay [8], 40.9 µM.

Regarding `CCOc1ccccc1NC(=O)c1cc2ccccc2cc1O`, the GI50 in assay [1] was 1.72 µM; in assay [2], 2.64 µM; in assay [3], 3.28 µM; in assay [4], 3.69 µM; in assay [5] it was 3.34 µM; in assay [6], 4.66 µM. The GI50 in assay [7] was 4.08 µM; in assay [8] it was 2.22 µM. The TGI in assay [1] amounted to 5.08 µM; in assay [2], 9.24 µM; in assay [3], 11.2 µM; in assay [4], 19.6 µM; in assay [5], 9.13 µM; in assay [6], 38.7 µM. Moreover, the TGI in assay [7] was determined as 10.3 µM; in assay [8], 6.9 µM.
